PubChem BioAssay (NCI)
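A five-concentration, 48-hour dose response in 96-well plates underlies each endpoint, interpolated linearly between surrounding concentrations. TGI is the concentration that stops growth completely.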

Tests used:
Experiment in all cases: NCI tumour cell line growth inhibition, 48 h
[1] = test system: 786-0 renal
[2] = test system: A498 renal
[3] = test system: A549 NSCLC
[4] = test system: ACHN renal
[5] = test system: BT-549 breast
[6] = test system: CAKI-1 renal
[7] = test system: CCRF-CEM leukemia
[8] = test system: COLO 205 colon
[9] = test system: DU-145 prostate
[10] = test system: EKVX NSCLC
[11] = test system: HCT-116 colon
[12] = test system: HCT-15 colon
[13] = test system: HL-60(TB) leukemia
[14] = test system: HOP-62 NSCLC
[15] = test system: HOP-92 NSCLC
[16] = test system: HS 578T breast
[17] = test system: HT29 colon
[18] = test system: IGROV1 ovarian
[19] = test system: K-562 leukemia
[20] = test system: KM12 colon
[21] = test system: LOX IMVI melanoma
[22] = test system: M14 melanoma
[23] = test system: MALME-3M melanoma
[24] = test system: MCF7 breast
[25] = test system: MDA-MB-231 breast
[26] = test system: MDA-MB-435
[27] = test system: MDA-N
[28] = test system: MOLT-4 leukemia
[29] = test system: NCI-H226 lung
[30] = test system: NCI-H23 lung
[31] = test system: NCI-H460 lung
[32] = test system: NCI-H522 lung
[33] = test system: NCI/ADR-RES ovarian
[34] = test system: OVCAR-3 ovarian
[35] = test system: OVCAR-4 ovarian
[36] = test system: OVCAR-5 ovarian
[37] = test system: OVCAR-8 ovarian
[38] = test system: PC-3 prostate
[39] = test system: RXF 393 renal
[40] = test system: SF-268 CNS
[41] = test system: SF-295 CNS
[42] = test system: SF-539 CNS
[43] = test system: SK-MEL-2 melanoma
[44] = test system: SK-MEL-28 melanoma
[45] = test system: SK-MEL-5 melanoma
[46] = test system: SK-OV-3 ovarian
[47] = test system: SN12C renal
[48] = test system: SNB-19 CNS
[49] = test system: SNB-75 CNS
[50] = test system: SR leukemia
[51] = test system: SW-620 colon
[52] = test system: T-47D breast
[53] = test system: TK-10 renal
[54] = test system: U251 CNS
[55] = test system: UACC-257 melanoma
[56] = test system: UACC-62 melanoma
[57] = test system: UO-31 renal
[58] = test system: RPMI-8226 leukemia

CC1(C)OCC(C2OC(C)(C)OC2[C@H]2O[C@@]3(O)[C@H]4[C@H](C=CC[C@@H]42)[C@@H](OCc2ccccc2)[C@H](OCc2ccccc2)[C@H]3OCc2ccccc2)O1 (some centres undefined)
TGI [1]: > 100 µM
TGI [2]: > 100 µM
TGI [3]: > 100 µM
TGI [4]: > 100 µM
TGI [5]: > 100 µM
TGI [6]: > 100 µM
TGI [7]: > 100 µM
TGI [8]: > 100 µM
TGI [9]: > 100 µM
TGI [10]: > 100 µM
TGI [11]: > 100 µM
TGI [12]: > 100 µM
TGI [13]: 42.4 µM
TGI [14]: > 100 µM
TGI [15]: > 100 µM
TGI [16]: > 100 µM
TGI [17]: 71.3 µM
TGI [18]: > 100 µM
TGI [19]: > 100 µM
TGI [20]: > 100 µM
TGI [21]: > 100 µM
TGI [22]: > 100 µM
TGI [23]: > 100 µM
TGI [24]: > 100 µM
TGI [25]: > 100 µM
TGI [26]: > 100 µM
TGI [27]: 44.8 µM
TGI [28]: 44.3 µM
TGI [29]: > 100 µM
TGI [30]: > 100 µM
TGI [31]: > 100 µM
TGI [32]: > 100 µM
TGI [33]: > 100 µM
TGI [34]: > 100 µM
TGI [35]: > 100 µM
TGI [36]: > 100 µM
TGI [37]: > 100 µM
TGI [38]: > 100 µM
TGI [39]: 82.1 µM
TGI [40]: > 100 µM
TGI [41]: > 100 µM
TGI [42]: > 100 µM
TGI [43]: 98.5 µM
TGI [44]: > 100 µM
TGI [45]: > 100 µM
TGI [46]: > 100 µM
TGI [47]: > 100 µM
TGI [48]: > 100 µM
TGI [49]: > 100 µM
TGI [50]: 31.4 µM
TGI [51]: > 100 µM
TGI [52]: > 100 µM
TGI [53]: > 100 µM
TGI [54]: > 100 µM
TGI [55]: > 100 µM
TGI [56]: > 100 µM
TGI [57]: 72.3 µM

O=C(O)c1ccc(SSc2ccc(C(=O)O)cn2)nc1
TGI [1]: > 100 µM
TGI [2]: > 100 µM
TGI [3]: > 100 µM
TGI [4]: > 100 µM
TGI [5]: > 100 µM
TGI [6]: > 100 µM
TGI [7]: > 100 µM
TGI [8]: > 100 µM
TGI [9]: > 100 µM
TGI [10]: > 100 µM
TGI [11]: > 100 µM
TGI [12]: > 100 µM
TGI [13]: > 100 µM
TGI [14]: > 100 µM
TGI [15]: > 100 µM
TGI [16]: > 100 µM
TGI [17]: > 100 µM
TGI [18]: > 100 µM
TGI [19]: > 100 µM
TGI [20]: > 100 µM
TGI [21]: > 100 µM
TGI [22]: > 100 µM
TGI [23]: > 100 µM
TGI [24]: > 100 µM
TGI [25]: > 100 µM
TGI [26]: > 100 µM
TGI [27]: > 100 µM
TGI [28]: > 100 µM
TGI [29]: > 100 µM
TGI [30]: > 100 µM
TGI [31]: > 100 µM
TGI [32]: > 100 µM
TGI [33]: > 100 µM
TGI [34]: > 100 µM
TGI [35]: > 100 µM
TGI [36]: > 100 µM
TGI [37]: > 100 µM
TGI [38]: > 100 µM
TGI [58]: > 100 µM
TGI [39]: > 100 µM
TGI [40]: > 100 µM
TGI [41]: > 100 µM
TGI [42]: > 100 µM
TGI [43]: > 100 µM
TGI [44]: > 100 µM
TGI [45]: > 100 µM
TGI [46]: > 100 µM
TGI [47]: > 100 µM
TGI [48]: > 100 µM
TGI [49]: > 100 µM
TGI [50]: > 100 µM
TGI [51]: > 100 µM
TGI [52]: > 100 µM
TGI [53]: > 100 µM
TGI [54]: > 100 µM
TGI [55]: > 100 µM
TGI [56]: > 100 µM
